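Where inhibition never reached the appropriate level, the endpoint shown equals the highest concentration tested. Otherwise, values were interpolated linearly from a five-concentration, 48-hour dose response in 96-well plates. TGI is the concentration that stops growth completely.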
Legend:
Experiment in all cases: inhibition of tumour cell growth, NCI panel, 48 h
[1] = system: SF-268 CNS
[2] = system: M14 melanoma
[3] = system: SNB-75 CNS
[4] = system: K-562 leukemia
[5] = system: A498 renal
[6] = system: HCT-15 colon
[7] = system: CCRF-CEM leukemia
[8] = system: OVCAR-5 ovarian
[9] = system: OVCAR-4 ovarian
[10] = system: SF-539 CNS
[11] = system: RPMI-8226 leukemia
[12] = system: XF 498 CNS
[13] = system: SK-OV-3 ovarian
[14] = system: SF-295 CNS
[15] = system: IGROV1 ovarian
[16] = system: NCI-H226 lung
[17] = system: SN12C renal
[18] = system: NCI-H522 lung
[19] = system: KM20L2 colon
[20] = system: TK-10 renal
[21] = system: RXF 393 renal
[22] = system: ACHN renal
[23] = system: LXFL 529 NSCLC
[24] = system: SK-MEL-5 melanoma
[25] = system: U251 CNS
[26] = system: DLD-1 colon
[27] = system: HOP-62 NSCLC
[28] = system: SW-620 colon
[29] = system: NCI-H23 lung
[30] = system: A549 NSCLC
[31] = system: SNB-19 CNS
[32] = system: LOX IMVI melanoma
[33] = system: SK-MEL-28 melanoma
[34] = system: OVCAR-8 ovarian
[35] = system: COLO 205 colon
[36] = system: UO-31 renal
[37] = system: HL-60(TB) leukemia
[38] = system: UACC-257 melanoma
[39] = system: SNB-78 CNS
[40] = system: HT29 colon
[41] = system: SK-MEL-2 melanoma
[42] = system: UACC-62 melanoma
[43] = system: DMS 273 small cell lung
[44] = system: SR leukemia
[45] = system: HOP-92 NSCLC
[46] = system: EKVX NSCLC
[47] = system: HCT-116 colon
[48] = system: KM12 colon
[49] = system: MOLT-4 leukemia
[50] = system: HCC-2998 colon
[51] = system: NCI-H460 lung
[52] = system: CAKI-1 renal
[53] = system: M19-MEL melanoma
[54] = system: DMS 114 small cell lung
[55] = system: MALME-3M melanoma
[56] = system: 786-0 renal
[57] = system: OVCAR-3 ovarian
[58] = system: HOP-18 NSCLC

Measured: TGI

O=C(Nc1ccc(Cl)c(Cl)c1)C(=O)C(C(=O)c1ccccc1F)C1OC(=O)c2ccccc21 (stereo unspecified)
47.8 µM: [31]
50.9 µM: [7]
50.4 µM: [32]
33.1 µM: [35]
80.2 µM: [52]
> 100 µM: [4] | [5] | [8] | [9] | [14] | [15] | [22] | [23] | [26] | [38] | [44] | [45] | [49]
43.7 µM: [16]
43.8 µM: [51]
30.4 µM: [47]
81.4 µM: [30]
35.9 µM: [24]
73.1 µM: [39]
62.3 µM: [28]
37.2 µM: [36]
76.2 µM: [27]
41.2 µM: [37]
58.8 µM: [3]
38.2 µM: [41]
37 µM: [48]
75.2 µM: [33]
60.2 µM: [17]
28.5 µM: [34]
46.4 µM: [54]
92.1 µM: [1]
93.8 µM: [20]
55.9 µM: [11]
88.8 µM: [40]
41.8 µM: [21]
34.3 µM: [2]
27.3 µM: [18]
46.9 µM: [43]
79.5 µM: [12]
68.6 µM: [46]
35.5 µM: [6]
28.3 µM: [42]
28.1 µM: [10] | [25]
41.7 µM: [53]
69.9 µM: [13]
32.7 µM: [50]
55.1 µM: [19]
75.9 µM: [29]

COC(=O)C1CCC2(C)[C@H](CCC3O[C@]32C)[C@@]1(C)CC(=O)c1ccoc1 (stereo partly specified)
> 100 µM: [1] | [2] | [4] | [5] | [6] | [55] | [56] | [7] | [8] | [9] | [10] | [11] | [12] | [13] | [14] | [15] | [16] | [17] | [57] | [18] | [19] | [20] | [21] | [22] | [23] | [24] | [25] | [26] | [27] | [28] | [29] | [30] | [31] | [32] | [33] | [34] | [35] | [36] | [37] | [38] | [39] | [42] | [43] | [44] | [46] | [47] | [48] | [49] | [50] | [51] | [52] | [53] | [54]

O=C(O)CCCNS(=O)(=O)c1ccccc1
> 100 µM: [1] | [2] | [3] | [4] | [5] | [6] | [55] | [56] | [7] | [8] | [9] | [10] | [11] | [12] | [13] | [14] | [15] | [16] | [17] | [57] | [18] | [19] | [20] | [21] | [22] | [23] | [24] | [25] | [26] | [28] | [29] | [58] | [30] | [31] | [32] | [33] | [34] | [35] | [36] | [37] | [38] | [40] | [41] | [42] | [43] | [45] | [46] | [48] | [49] | [50] | [51] | [52] | [53]

Cc1cc([N+](=O)[O-])ccc1Sc1c2ccccc2nc2ccccc12
97.3 µM: [52]
78.9 µM: [25]
66.8 µM: [42]
84.4 µM: [34]
50 µM: [12]
89.8 µM: [19]
32.7 µM: [48]
45.5 µM: [23]
98.2 µM: [45]
56.1 µM: [50]
> 100 µM: [1] | [2] | [3] | [4] | [5] | [55] | [8] | [9] | [13] | [14] | [15] | [16] | [57] | [20] | [21] | [22] | [24] | [26] | [27] | [28] | [58] | [30] | [31] | [33] | [35] | [36] | [43] | [46] | [51]
70.1 µM: [44]
71.3 µM: [38]
49.1 µM: [37]
79.2 µM: [29]
57.2 µM: [6]
56.5 µM: [10]
55.5 µM: [56]
93.3 µM: [17]
38.9 µM: [18]
55.9 µM: [41]
73.1 µM: [49]
66.6 µM: [47]
38.6 µM: [32]
79.5 µM: [7]

Cc1ccccc1N(CC(=O)O)S(=O)(=O)c1ccccc1
> 100 µM: [1] | [2] | [3] | [4] | [5] | [6] | [55] | [56] | [7] | [8] | [9] | [10] | [11] | [12] | [13] | [14] | [15] | [16] | [17] | [57] | [18] | [19] | [20] | [21] | [22] | [23] | [24] | [25] | [26] | [28] | [29] | [58] | [30] | [31] | [32] | [33] | [34] | [35] | [36] | [37] | [38] | [40] | [41] | [42] | [43] | [45] | [46] | [48] | [49] | [50] | [51] | [52] | [53]

Reference: PubChem BioAssay (NCI)
